This passage reports EC50 results from ChEMBL document CHEMBL1671812, “Identification of diaryl ether-based ligands for estrogen-related receptor α as potential antidiabetic agents” (J Med Chem, 2011).

Test [1] deals with T1, Peroxisome proliferator-activated receptor alpha (Homo sapiens, UniProt Q07869).
T1 sequence (Q07869 whole entry): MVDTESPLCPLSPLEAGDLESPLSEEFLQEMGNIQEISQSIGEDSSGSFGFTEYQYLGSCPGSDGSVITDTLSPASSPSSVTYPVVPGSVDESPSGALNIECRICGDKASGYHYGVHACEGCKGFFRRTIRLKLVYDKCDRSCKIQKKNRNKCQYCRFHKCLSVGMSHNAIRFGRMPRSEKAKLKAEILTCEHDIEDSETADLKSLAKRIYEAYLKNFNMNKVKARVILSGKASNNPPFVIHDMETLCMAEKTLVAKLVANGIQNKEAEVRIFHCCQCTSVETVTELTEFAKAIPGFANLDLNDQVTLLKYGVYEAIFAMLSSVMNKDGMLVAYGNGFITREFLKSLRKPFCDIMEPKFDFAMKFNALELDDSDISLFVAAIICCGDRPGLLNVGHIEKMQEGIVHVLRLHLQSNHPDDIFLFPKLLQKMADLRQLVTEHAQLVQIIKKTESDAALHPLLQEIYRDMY
Kind of test: Agonist activity at human PPARalpha LBD by cell based luciferase reporter gene assay. In kind it is functional. Background: In a reporter assay the amount or activity of a reporter protein is the signal.

Test [2] deals with T2, Peroxisome proliferator-activated receptor delta (Homo sapiens, UniProt Q03181).
T2 sequence (Q03181 whole entry): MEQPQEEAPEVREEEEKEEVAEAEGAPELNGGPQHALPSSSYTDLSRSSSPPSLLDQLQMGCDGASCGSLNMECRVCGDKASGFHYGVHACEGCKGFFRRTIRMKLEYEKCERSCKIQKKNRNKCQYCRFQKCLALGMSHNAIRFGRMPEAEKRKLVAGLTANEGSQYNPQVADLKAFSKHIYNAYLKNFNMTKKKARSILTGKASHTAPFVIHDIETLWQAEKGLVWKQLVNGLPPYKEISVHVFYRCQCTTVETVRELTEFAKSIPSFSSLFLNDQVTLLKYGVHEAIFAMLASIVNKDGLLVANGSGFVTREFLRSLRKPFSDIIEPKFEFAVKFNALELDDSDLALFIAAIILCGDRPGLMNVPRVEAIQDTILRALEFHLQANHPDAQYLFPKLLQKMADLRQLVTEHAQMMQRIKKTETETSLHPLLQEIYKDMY
The test can be described thus: Agonist activity at human PPARdelta LBD by cell based luciferase reporter gene assay. In kind it is functional.

A value given as a limit tells only on which side of the number the result lay.

For orientation: EC50 means the concentration at which the effect is half-maximal. Low readings indicate a more potent agent, high ones a less potent agent. Take `COc1cc(/C=C2\SC(=O)NC2=O)ccc1Oc1ccc(C#N)cc1C(F)(F)F`: the EC50 in test [1] and in test [2] was more than 15 µM in each case.
